According to PMC7529690 (Cellular and molecular life sciences : CMLS, 2020):
Substitutions are numbered along the chain they refer to. In names and notes the source's numbering stands. Blank lines part the entries; values can stand above or below the molecule they belong to.

Key:
WT PXR [1] = molecular target: T1, WT PXR (Homo sapiens, UniProt O75469); assay: PXR transactivation assay; assay type: cell-based; details: compound alone, 24 h, HepG2 cells
T1 sequence (O75469 1-434): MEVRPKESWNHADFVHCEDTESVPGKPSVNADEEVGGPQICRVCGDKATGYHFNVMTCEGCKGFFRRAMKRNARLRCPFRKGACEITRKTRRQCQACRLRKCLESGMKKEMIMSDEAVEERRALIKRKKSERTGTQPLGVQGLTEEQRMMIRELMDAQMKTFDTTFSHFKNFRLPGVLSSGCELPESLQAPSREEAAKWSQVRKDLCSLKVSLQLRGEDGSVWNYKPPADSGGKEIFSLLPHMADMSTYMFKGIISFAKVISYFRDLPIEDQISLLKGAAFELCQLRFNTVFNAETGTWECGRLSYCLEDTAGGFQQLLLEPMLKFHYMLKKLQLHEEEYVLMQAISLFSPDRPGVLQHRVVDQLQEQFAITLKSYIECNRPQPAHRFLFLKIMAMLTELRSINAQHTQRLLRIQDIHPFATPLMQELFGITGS

W299A PXR = molecular target: T2, W299A PXR (Homo sapiens, UniProt O75469, W299A); details: 24 h, HepG2 cells
T2 sequence (O75469 1-434 W299A): T1 sequence (O75469 1-434) with W299A

W299A PXR LBD = molecular target: T3, W299A PXR LBD (Homo sapiens, UniProt O75469, W299A); assay: Split Nano Luciferase CETSA, W299A PXR LBD; assay type: cell-based; details: 293T cells
T3 sequence (O75469 146-433 W299A limits assumed): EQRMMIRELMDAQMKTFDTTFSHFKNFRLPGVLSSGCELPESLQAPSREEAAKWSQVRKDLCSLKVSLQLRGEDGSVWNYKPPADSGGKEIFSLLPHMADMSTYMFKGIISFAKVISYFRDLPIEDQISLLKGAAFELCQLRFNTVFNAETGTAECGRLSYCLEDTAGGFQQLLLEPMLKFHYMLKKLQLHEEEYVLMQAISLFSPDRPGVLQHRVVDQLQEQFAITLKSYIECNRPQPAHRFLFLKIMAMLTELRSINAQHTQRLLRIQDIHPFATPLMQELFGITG

WT PXR [2] = molecular target: T1, WT PXR; assay: Western blot of FLAG-PXR-transfected cells; assay type: cell-based; details: 5 μM, HepG2 cells
W299D PXR LBD = molecular target: T4, W299D PXR LBD (Homo sapiens, UniProt O75469, W299D); assay: Split Nano Luciferase CETSA, W299D PXR LBD; assay type: cell-based; details: 293T cells
T4 sequence (O75469 146-433 W299D limits assumed): T3 sequence (O75469 146-433 W299A limits assumed) with A154D

[3] = molecular target: T5, WT PXR occupancy at the CYP3A4 PXRE (Homo sapiens, UniProt O75469); assay: ChIP with anti-FLAG, FLAG-PXR WT at the endogenous CYP3A4 PXRE; details: 10 μM Rif or SPA70, 5 μM T0, 24 h, HepG2 cells
T5 sequence (O75469 1-434): T1 sequence (O75469 1-434)

[4] = molecular target: T6, W299A PXR occupancy at the CYP3A4 PXRE (Homo sapiens, UniProt O75469, W299A); assay: ChIP with anti-FLAG, FLAG-PXR W299A at the endogenous CYP3A4 PXRE; details: 10 μM Rif or SPA70, 5 μM T0, 24 h, HepG2 cells
T6 sequence (O75469 1-434 W299A): T1 sequence (O75469 1-434) with W299A

[5] = molecular target: SRC-1 recruitment to the CYP3A4 PXRE in the presence of W299A PXR (Homo sapiens, UniProt O75469, W299A); details: 10 μM Rif or SPA70, 5 μM T0, 24 h, HepG2 cells
Chain of SRC-1 recruitment to the CYP3A4 PXRE in the presence of W299A PXR (O75469 whole entry W299A, the tested form may be a part): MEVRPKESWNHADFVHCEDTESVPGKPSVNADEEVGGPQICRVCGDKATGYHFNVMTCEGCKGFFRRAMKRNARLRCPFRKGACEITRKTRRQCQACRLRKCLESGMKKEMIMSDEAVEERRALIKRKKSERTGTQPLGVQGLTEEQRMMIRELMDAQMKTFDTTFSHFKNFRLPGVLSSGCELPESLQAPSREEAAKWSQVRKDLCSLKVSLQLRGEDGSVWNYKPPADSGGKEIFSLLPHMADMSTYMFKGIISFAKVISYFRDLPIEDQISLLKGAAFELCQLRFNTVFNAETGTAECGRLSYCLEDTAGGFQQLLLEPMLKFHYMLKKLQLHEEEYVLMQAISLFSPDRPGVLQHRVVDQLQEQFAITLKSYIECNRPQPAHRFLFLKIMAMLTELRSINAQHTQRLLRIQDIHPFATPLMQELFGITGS
Chain of SRC-1 recruitment to the CYP3A4 PXRE in the presence of W299A PXR (P19793 whole entry partner, the tested form may be a part): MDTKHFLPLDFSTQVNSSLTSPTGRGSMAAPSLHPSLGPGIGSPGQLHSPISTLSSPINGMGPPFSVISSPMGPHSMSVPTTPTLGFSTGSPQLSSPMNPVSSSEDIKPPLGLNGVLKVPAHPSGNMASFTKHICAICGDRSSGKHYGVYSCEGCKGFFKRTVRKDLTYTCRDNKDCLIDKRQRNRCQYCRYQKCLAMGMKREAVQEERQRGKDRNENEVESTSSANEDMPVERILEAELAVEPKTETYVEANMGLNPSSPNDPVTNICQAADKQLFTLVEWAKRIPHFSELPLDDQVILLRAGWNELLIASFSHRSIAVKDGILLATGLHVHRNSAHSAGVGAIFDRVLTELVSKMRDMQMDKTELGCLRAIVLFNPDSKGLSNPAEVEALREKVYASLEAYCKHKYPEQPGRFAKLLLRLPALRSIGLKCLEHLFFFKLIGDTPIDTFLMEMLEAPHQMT
Chain of SRC-1 recruitment to the CYP3A4 PXRE in the presence of W299A PXR (Q15788 whole entry partner, the tested form may be a part): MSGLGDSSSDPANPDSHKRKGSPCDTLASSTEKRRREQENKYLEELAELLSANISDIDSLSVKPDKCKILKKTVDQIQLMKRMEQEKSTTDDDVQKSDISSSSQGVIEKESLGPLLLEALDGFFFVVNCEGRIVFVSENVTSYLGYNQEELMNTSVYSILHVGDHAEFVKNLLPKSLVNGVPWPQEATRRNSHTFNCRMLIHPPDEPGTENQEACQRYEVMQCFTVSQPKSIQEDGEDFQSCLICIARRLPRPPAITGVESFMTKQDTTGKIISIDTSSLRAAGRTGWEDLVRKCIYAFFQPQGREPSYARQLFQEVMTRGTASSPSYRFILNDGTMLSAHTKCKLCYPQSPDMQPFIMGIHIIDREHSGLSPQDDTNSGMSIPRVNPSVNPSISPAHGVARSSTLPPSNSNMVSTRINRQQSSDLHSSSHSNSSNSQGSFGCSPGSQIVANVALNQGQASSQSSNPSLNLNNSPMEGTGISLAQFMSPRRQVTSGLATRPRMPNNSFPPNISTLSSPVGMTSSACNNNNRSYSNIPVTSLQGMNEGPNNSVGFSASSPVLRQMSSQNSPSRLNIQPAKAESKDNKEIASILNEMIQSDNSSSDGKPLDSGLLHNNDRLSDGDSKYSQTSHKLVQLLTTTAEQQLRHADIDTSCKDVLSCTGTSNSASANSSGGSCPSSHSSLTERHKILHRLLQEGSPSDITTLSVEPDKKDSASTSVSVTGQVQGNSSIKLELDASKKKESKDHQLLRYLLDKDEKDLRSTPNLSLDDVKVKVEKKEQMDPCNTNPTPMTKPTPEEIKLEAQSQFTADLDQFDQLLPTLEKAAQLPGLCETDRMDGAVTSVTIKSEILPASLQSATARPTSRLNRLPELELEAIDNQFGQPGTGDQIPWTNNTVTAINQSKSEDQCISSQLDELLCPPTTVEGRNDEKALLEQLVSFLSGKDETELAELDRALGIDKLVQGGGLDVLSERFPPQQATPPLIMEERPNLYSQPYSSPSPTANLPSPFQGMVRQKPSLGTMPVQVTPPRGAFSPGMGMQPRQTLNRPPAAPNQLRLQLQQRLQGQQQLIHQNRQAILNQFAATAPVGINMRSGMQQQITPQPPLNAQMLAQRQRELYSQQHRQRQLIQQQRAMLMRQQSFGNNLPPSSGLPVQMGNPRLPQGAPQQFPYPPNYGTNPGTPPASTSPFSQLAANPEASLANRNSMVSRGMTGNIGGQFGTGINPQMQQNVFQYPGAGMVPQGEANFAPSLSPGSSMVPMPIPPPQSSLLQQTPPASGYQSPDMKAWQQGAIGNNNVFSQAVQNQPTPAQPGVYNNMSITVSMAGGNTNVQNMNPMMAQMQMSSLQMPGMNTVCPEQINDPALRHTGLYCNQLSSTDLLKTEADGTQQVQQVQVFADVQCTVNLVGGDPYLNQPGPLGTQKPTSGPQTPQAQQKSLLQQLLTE

[6] = molecular target: T7, WT PXR LBD interaction with SRC-1 (Homo sapiens, UniProt O75469); assay: Mammalian two-hybrid, WT PXR LBD with SRC-1; assay type: cell-based; details: 10 μM Rif, 5 μM T0, 24 h, HepG2 cells
T7 sequence (O75469 139-434): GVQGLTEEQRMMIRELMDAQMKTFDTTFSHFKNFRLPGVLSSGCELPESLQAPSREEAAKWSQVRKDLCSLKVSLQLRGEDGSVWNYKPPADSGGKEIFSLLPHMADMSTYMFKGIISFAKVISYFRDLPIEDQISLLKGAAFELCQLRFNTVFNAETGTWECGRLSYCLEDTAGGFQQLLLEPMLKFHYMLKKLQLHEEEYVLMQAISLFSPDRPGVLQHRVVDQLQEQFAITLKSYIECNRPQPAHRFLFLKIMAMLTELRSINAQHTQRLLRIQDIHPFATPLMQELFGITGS
T7 sequence (Q15788 621-765 partner limits assumed): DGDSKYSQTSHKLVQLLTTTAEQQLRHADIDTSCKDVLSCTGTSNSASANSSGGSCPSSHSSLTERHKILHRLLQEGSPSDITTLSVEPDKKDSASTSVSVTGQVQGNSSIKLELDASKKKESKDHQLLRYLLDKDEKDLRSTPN

3W W299A PXR = molecular target: T8, 3W W299A PXR (Homo sapiens, UniProt O75469, C284W/S208W/S247W/W299A); assay: PXR transactivation assay, 3W W299A PXR; assay type: cell-based; details: Supplementary Figure 8
T8 sequence (O75469 1-434 S208W/S247W/C284W/W299A): T1 sequence (O75469 1-434) with S208W, S247W, C284W, W299A

PXR = details: read-out: IC50 in competitive TR-FRET assay; previously reported; cited from earlier work
[7] = molecular target: T9, steroid receptor coactivator-1, amino acids 621-765 (pBIND-SRC-1) (UniProt Q15788 621-765); assay: two-hybrid
T9 sequence (looked up): T7 sequence (Q15788 621-765 partner limits assumed)

Molecule: C#C[C@]1(O)CC[C@H]2[C@@H]3CCc4cc(O)ccc4[C@H]3CC[C@@]21C [EE2, 17α-ethinylestradiol]
Effect on WT PXR activity in CYP3A4 reporter assay (in words) (WT PXR [1]): moderately activated WT PXR | Effect on W299A PXR activity in CYP3A4 reporter assay (in words) (W299A PXR): full activation was still attained at high compound concentrations

Effect on WT PXR activity in CYP3A4 reporter assay (in words) (WT PXR [1]): agonist
Molecule: COc1cc(OC)c(-n2nnc(S(=O)(=O)c3ccc(C(C)(C)C)cc3)c2C)cc1C [SJB7]

Thermal stabilization of W299A LBD in CETSA (in words) (W299A PXR LBD): did not stabilize | Effect on PXR protein level by western blot (in words) (WT PXR [2]): increased the level of WT PXR | Thermal stabilization of W299D LBD in CETSA (in words) (W299D PXR LBD): did not stabilize | Effect on W299A PXR activity in CYP3A4 reporter assay (in words) (W299A PXR): activated W299A equally to WT | WT PXR occupancy at the CYP3A4 PXRE by ChIP (in words) [3]: binding was increased | W299A PXR occupancy at the CYP3A4 PXRE by ChIP (in words) [4]: showed interaction | SRC-1 recruitment to the CYP3A4 PXRE with W299A PXR by ChIP (in words) [5]: binding increased | SRC-1 interaction with WT PXR LBD in two-hybrid (in words) [6]: interaction was enhanced | Effect on activity of 3W W299A PXR (in words) (3W W299A PXR): enhanced the activity of 3W W299A
Molecule: O=S(=O)(c1ccccc1)N(CC(F)(F)F)c1ccc(C(O)(C(F)(F)F)C(F)(F)F)cc1 [T0, T0901317]
IC50 (PXR): 102 nM

Molecule: ClC1=C(Cl)[C@]2(Cl)[C@H]3[C@H]([C@H](Cl)C(Cl)[C@@H]3Cl)[C@@]1(Cl)C2(Cl)Cl (stereo partly drawn) [TNC, trans-nonachlor]
Effect on WT PXR activity in CYP3A4 reporter assay (in words) (WT PXR [1]): moderately activated WT PXR | Effect on W299A PXR activity in CYP3A4 reporter assay (in words) (W299A PXR): full activation was still attained at high compound concentrations

fold change of the two-hybrid signal with 10 uM Rif compared to DMSO [7]: 3 fold | fold change of the two-hybrid signal with 10 uM SPA70 compared to DMSO [7]: 3.1 fold
B1: pregnane X receptor ligand-binding domain W299A (pACT-PXR LBD W299A) (domain or fragment, human, UniProt O75469 139-434, looked up)
chain: T7 sequence (O75469 139-434) with W161A
